What all share (format): physicochemical
The nature of data set [1]: Release of Nile Blue from MIP polymers in glucose solutions. As to the method:
Loading of Films with Nile Blue For Release Studies. For dye loading, 50 mg of Nile Blue was weighed out and dissolved in 100 ml of distilled water, resulting in a final concentration of 0.5 mg/ml. The mixture was vigorously mixed and sonicated for 5 minutes. In the meantime discs were arranged in a segmented plastic container and the Nile Blue solution gently pipetted onto the discs until they were fully covered. The container was covered and left at room temperature overnight.
The following day the Nile Blue was gently removed by pipettes until the discs were visible. The discs were carefully removed and washed three times with water and then placed in a clean container and covered in water. The container was then placed on a hot plate set to 55° C. and left for three hours. The water was removed and the process repeated. At the end of six hours the discs were removed and placed on a clean foil and dried overnight at room temperature. The following day the discs were ready for study.
Preparation of glucose solutions. Glucose (200 mg) was weighed out and dissolved in 100 ml of water, resulting in a final concentration of 200 mg/dl.
Incubation—Nile Blue. The above solutions of glucose or lactic acid were used as triggers for Nile Blue release. 4 ml of each solution was placed into three petri dishes kept at room temperature. Stained discs were placed into each dish and the dish covered. Samples were taken (400 ul) into micro-cuvettes at specific time points and the concentration of Nile Blue present was determined by measuring the absorbance of the Nile Blue solutions at 625 nm.

The nature of data set [2]: Release of geraniol from MIP polymers in lactic acid solutions. As to conditions: 200 mg/dl lactic acid, 24 hours; FIG. 8. How it is done:
Loading of films with and Active Agent. The active agent geraniol was used for release studies. Once dry, 7 mm discs were carefully cut out using a standard stainless steel cork borer. The discs were lifted out and placed on a clean dish. For the loading, 100 mg of geraniol was weighed out and dissolved in 100 ml of 50% ethanol:distilled water, resulting in a final concentration of 1.0 mg/ml.
The mixture was vigorously mixed and sonicated for 5 minutes. In the meantime discs were arranged in a segmented plastic container and the geraniol solution gently pipetted onto the discs until they were fully covered. The container was tightly covered and left at room temperature overnight. The following day the geraniol solution was gently removed by pipette until the discs were visible. The discs were washed three times with water and placed on a clean foil and left to dry overnight.
Preparation of lactic acid solutions. […]
Incubation Study—Geraniol. […] The stop clock started and samples were taken (100 ul) into HPLC autosampler vials and the concentration of geraniol present was determined by injecting onto a C18 HPLC column and monitoring at a wavelength of 195 nm.
Assay for Geraniol. Geraniol concentration was quantified using an HPLC Diode array detector (DAD) at 195 nm. After blanking with water, samples were injected and the peak area of the geraniol peak recorded. […]

Data set [3] can be described thus: Loading of films with geraniol. The conditions noted are these: lactic acid-triggered films, 7 mm discs. As to the method:
Loading of films with and Active Agent. The active agent geraniol was used for release studies. Once dry, 7 mm discs were carefully cut out using a standard stainless steel cork borer. The discs were lifted out and placed on a clean dish. For the loading, 100 mg of geraniol was weighed out and dissolved in 100 ml of 50% ethanol:distilled water, resulting in a final concentration of 1.0 mg/ml. The mixture was vigorously mixed and sonicated for 5 minutes. In the meantime discs were arranged in a segmented plastic container and the geraniol solution gently pipetted onto the discs until they were fully covered. The container was tightly covered and left at room temperature overnight. The following day the geraniol solution was gently removed by pipette until the discs were visible. The discs were washed three times with water and placed on a clean foil and left to dry overnight.

Data on two molecules can be found in patent US20100210835A1, “Mimetic Drug Delivery Systems for Release with Specific Molecular Triggers” (BOARD OF REGENTS, THE UNIVERSITY OF TEXAS SYSTEM, priority 2009, published 2010).

As for `CC[N+](CC)=c1ccc2nc3c(cc(N)c4ccccc43)oc-2c1` [Nile Blue], the “release of Nile Blue from MIP films” value in data set [1] (films moved at 365 minutes from water to 200 mg/dl glucose, FIG. 5) is given as “began almost immediately”; in data set [1] (films moved at 450 minutes from glucose solution to fresh water, FIG. 6), “stopped almost immediately”; in data set [1] (in water, about 5 hours), “not showed any significant release”; in data set [1] (increasing glucose concentration, FIG. 4), “released in increasing amounts”.
As for `CC(C)=CCC/C(C)=C/CO` [Geraniol], in data set [2], the “release of geraniol from MIP films” value is approximately 100%. Besides, in data set [3], the “loading of geraniol in MIP films” value is “approximately 145 μg per disc”.
